The record followed here is patent publication US20150025131A1 (priority 2013, published 2015).

Each structure is given as a SMILES string. ≈ marks a conversion by molar mass, not a printed value. Entries after “also recorded” stand apart in the source; their conditions may differ.

One data set relates to TNF-α production. Description: TNF-α production from PMA differentiated, LPS activated THP-1 cells (ELISA). Type of data set: cell-based, human. To be noted: Homo sapiens, 4 h, read-out: inhibition of TNF-α production (IC50). How it is done: The symbol * and δ represents the P≦0.03 and P≦0.006, respectively.
FIG. 2 depicts the effect of pentoxyfillin (PTX) on TNF-α production (pg/mL) Human monocytic leukemia THP-1 cells were differentiated and activated with 20 ng/mL of PMA and 50 ng/mL of LPS, respectively and incubated with different concentrations of PTX for 4h, the supernatant was analyzed for the level of TNF-α by ELISA. The symbol * represents P≦of 0.03.
THP-1 (human monocytic leukemia) cells were maintained in RPMI-1640 supplemented with 10% FBS, 2 mmol/L glutamine, 5.5 mmol/L glucose, 50 μmol/L mercaptoethanol, 1 mmol/L sodium pyruvate, and 10 mmol/L HEPES and incubated at 37° C. in 5% CO2. Cells were grown in […] culture flask until they attained 70% confluency. Cells were then plated in 24-well tissue culture plates at a concentration of 2.5×10^5 cells/mL. Cells were differentiated into macrophages using PMA at a final concentration of 20 ng/mL and further incubated at 37° C. in 5% CO2 environment for 24 h. […] After addition of the compound cells were then incubated for 4 h for TNF-α production and 18 h for IL-1β production at 37° C. in 5% CO2. The supernatants were harvested and analyzed for the level of TNF-α and IL-1β, by human TNF-α and IL-1β Duo set ELISA kits, and according to the manufacturer's instructions.

The nature of data set [1]: MTT cytotoxicity assay, CC1. In kind it is cell-based. Conditions: rat, CC1 rat epithelial liver cells, 48 h incubation, read-out: Cytotoxicity (IC50 μg/mL) CC1 cells. As for the experimental part:
Cell cytotoxicity assay was performed using three different cell lines NIH 3T3 (mouse embryo, fibroblast cells), CC1 (rat, epithelial, liver cell) and MDBK (bovine kidney) cells using MTT (3-[4,5-dimethylthiazole-2-yl]-2,5-diphenyl-tetrazolium bromide) colorimetric assay. Briefly 3T3 were grown in DMEM, supplemented with 10% of fetal bovine serum (FBS), and 1% penicillin-streptomycin whereas CC1 (rat epithelial liver cells) were cultured in EMEM, 2 mM Glutamine, 1% Non-Essential Amino Acids (NEAA), 20 mM HEPES, 10% Foetal Bovine Serum (FBS) and 1% penicillin-streptomycin, and MDBK cells were grown in 10% of fetal bovine serum (FBS) in 75 cm^2 flask, and incubated in 5% CO2 incubator at 37° C. until they attain 70% confluency. Cells were then harvested by centrifuging at 200 g for 5 min at 25° C., counted using heamocytometer and their concentration was adjusted to 6×10^4 cells/mL. 100 μL of Cells were then plated in 96 well plate and incubated overnight. Next day the supernatant was carefully removed and 200 μL of fresh medium was added with three different concentration of compound (1, 10, 50) μg/mL. […] The extent of MTT reduction to formazan within cells was calculated by measuring the absorbance at 540 nm; using a micro plate reader (Spectra Max plus 340, Molecular Devices, Calif., USA). […] The percent inhibition was calculated by using the following formula: […]

Data set [2] deals with non-activated Jurkat cell proliferation. Description: Jurkat T cell proliferation. Type of data set: cell-based. Conditions: Homo sapiens; non-activated Jurkat cells; read-out: Jurkat T cell Proliferation (IC50 μg /mL). As for the experimental part:
In order to monitor the effect of this compound on cellular immune response particularly on T cells, the compound was tested on thymidine incorporated T cell proliferation assay.

The subject of a further data set is serum TNF-α. Description: Adjuvant induced arthritis model, serum TNF-α. Type of data set: in vivo, Sprague Dawley rats. To be noted: AIA rats, daily intraperitoneal; Patuletin 25 mg/kg, indomethacin 5 mg/kg. As for the experimental part: (§1) All studies were carried out using Female Sprague Dawley (SD) rats weighing 150-250 gms. Animals were kept at 21±2° C. and on a 12-h light/dark cycle, received standardized pelleted diet and tap water. Experiments were performed under the ethical guidelines of the International Association for the study of pain in conscious animals. Each group contains 12 animals with randomly distributed weights into each treatment group.
(§2) Arthritis was induced by injecting freshly prepared 100 μL of 1 mg suspension of lyophilized Mycobacterium tuberculosis H37Ra (MT H37Ra; DIFCO Laboratories, Detroit, Mich., USA), subcutaneously at the rat tail base using sterile hypodermic needle. Inoculation was carried out under anesthesia with a combination of 20 mg/kg ketamine and 5 mg/kg xylazine, injected intraperitoneally. Compound and the reference drug were administered daily, intraperitoneally using sterile syringes. The positive control received vehicle (5% DMSO+PBS) or saline only; treatment groups received test compounds (25 mg/kg), whereas reference group received indomethacin (5 mg/kg). The doses of the test compounds were selected after preliminary dose finding studies. […]
The quantitative measurement of TNF-α and IL-1β was done in serum of all groups of animals including arthritic and non-arthritic using commercial ELISA assay kits (Abcam, USA) according to the manufacturer's instructions. […]

The next data set deals with serum nitric oxide. The experiment in a line: Adjuvant induced arthritis model, serum nitric oxide. Type of data set: in vivo, Sprague Dawley rats. To be noted: AIA rats, daily intraperitoneal; Patuletin 25 mg/kg, indomethacin 5 mg/kg. How it is done:
as §1
Arthritis was induced by injecting freshly prepared 100 μL of 1 mg suspension of lyophilized Mycobacterium tuberculosis H37Ra (MT H37Ra; DIFCO Laboratories, Detroit, Mich., USA), subcutaneously at the rat tail base using sterile hypodermic needle. […]
Peroxide (PO) and nitric oxide (NO), in serum were determined in the serum samples of both the normal and arthritic groups, using quantitative colorimetric assay kits, i.e., the Quantichrom ™ Nitric Oxide Assay Kit, and the Quantichrome™ Peroxide assay kit Diox-250 (BioAssay Systems, Hayward, Calif., USA). […] The samples were analyzed in duplicates using 96-well plate and the plate was read at 540 nm. The Quantichrome™ Peroxide assay kit Diox −250 system is an improved method which utilizes the oxidation of Fe^++ by peroxide present in the analyzed sample resulting in formation of purple complex that gives the accurate measure of peroxide level in the sample when read at 540-610 nm.

The subject of the next data set is serum glutathione. Description: Adjuvant induced arthritis model, serum glutathione. Conditions: AIA rats, daily intraperitoneal; Patuletin 25 mg/kg, indomethacin 5 mg/kg. In kind it is in vivo, Sprague Dawley rats. How it is done: as §1
as §2, with “mg/kg).” for “mg/kg). The doses of the test compounds were selected after preliminary dose finding studies.”
The concentration of reduced form of glutathione was determined in serum using the colorimetric Quantichrome ™ Glutathione assay kit (Bioassay Systems) in duplicates, using 96 well plates and according to manufacturer's instructions. The OD recorded at 412 nm which directly represents the level of glutathione in serum.

Take `COc1c(O)cc2oc(-c3ccc(O)c(O)c3)c(O)c(=O)c2c1O` [Patuletin, 3,5,7,3′,4′-pentahydroxy-6-methoxy flavones]: the IC50 was found to be 2.5 µg/mL (≈ 7.52 µM) in the data set with TNF-α production and 3.47 µg/mL (≈ 10.4 µM) in data set [2]. Further, in data set [1], the IC50 at 48 h came out at 5.2 µg/mL (≈ 15.7 µM). Besides, the “level of TNF-α in serum versus arthritic control group” value with serum TNF-α was “marked decrease”. Further, the “level of nitric oxide in serum versus arthritic control group” value in the data set with serum nitric oxide is on record as “marked reduction; also recorded: significant decrease”. Besides, the “level of glutathione in serum versus arthritic control group” value in the data set on serum glutathione is on record as “non-significant increase; also recorded: mild increase”.
